“And” between values parts separate entries of the source, which are not always exact repeats. Equal values may be shown once.
What was measured:
Type in all cases: in vivo, human
[1] = test system: patients with catecholamine-resistant vasodilatory shock; assay: Adverse events, ATHOS-3 patients with elevated baseline renin; conditions: patients with elevated renin concentrations at baseline
Method: Safety was evaluated by assessment of treatment-emergent adverse events, serious adverse events, and adverse event-related drug discontinuations. Data were analyzed with the use of SAS software, version 9.4 (SAS Institute, Cary, N.C.) and R version 3.5.3. (R Foundation).

[2] = test system: patients with catecholamine-resistant vasodilatory shock; assay: MAP response at hour 3 by baseline renin, ATHOS-3
Method: (§1) The Angiotensin II for the Treatment of High-Output Shock 3 (ATHOS-3) study has been previously described—NCT02338843. In brief, adults with vasodilatory shock despite volume resuscitation with ≥25 mL/kg and high-dose vasopressors (defined as a norepinephrine equivalent [NED] of greater than 0.2 mcg/kg/min) were randomly assigned 1:1 to receive synthetic human angiotensin II (La Jolla Pharmaceutical Company, San Diego, Calif.) or saline placebo plus standard vasopressors. Randomization was stratified according to MAP at screening and Acute Physiology and Chronic Health Evaluation II (APACHE II) score.
(§2) Study drug infusion started at 20 ng/kg/min and was adjusted during the first 3 hours to increase the MAP to ≥75 mm Hg while keeping other vasopressors constant. Thereafter, the study drug and other vasopressors were adjusted at the discretion of the treating ICU team to maintain a MAP between 65 and 75 mm Hg. At 48 hours, the infusion was discontinued according to a protocol-specified tapering process. However, continuation was allowed for up to 7 days at the discretion of the ICU team.

[3] = test system: patients with catecholamine-resistant vasodilatory shock; assay: Ventilator liberation, RRT liberation and ICU discharge in ATHOS-3 by baseline renin
Method: as §1, §2
(§3) Descriptive statistics with 95% confidence intervals (CIs) were used to summarize data according to treatment group. Differences between treatment groups were identified using the Wilcoxon rank-sum test or analysis of variance for continuous or ordinal variables and the chi-square or Fisher's exact test for discrete variables. Time-to-event data was summarized, including survival, using Kaplan-Meier estimates and compared them by log-rank test. Hazard ratios (HRs) are estimated from a proportional hazards model. A two-sided alpha level of 0.05 was used to test for differences in treatment outcomes without adjustments for multiplicity. Correlation coefficients were calculated for renin versus angiotensin I and the angiotensin I/II ratio. Correlation coefficients were also calculated for renin versus angiotensin I for hour 0 (baseline) and hour 3. For multivariate analyses, covariates that were utilized for study stratification (Model A), covariates that were different between groups defined by P<0.10 (Model B), and statistically significant covariates from Models A and B were included in a multivariate logistic regression (Model C). The dichotomized baseline covariates that were utilized for study stratification were MAP <65 mm Hg and APACHE II score >30.

serum renin = assay: Serum renin concentration at baseline and hour 3 (DRG Renin ELISA), ATHOS-3 patients
Method: as §1, §2
(§4) Serum concentrations of renin, angiotensin I, and angiotensin II were measured after randomization but prior to administration of the study drug and at 3 hours after initiation of study drug.
Serum renin was measured with the DRG Renin ELISA Kit (DRG Instruments GmbH, Marburg, Germany). The DRG ELISA Kit is a solid-phase enzyme-linked immunosorbent assay based on the sandwich principle. The microtiter wells are coated with a monoclonal (mouse) antibody directed toward a unique antigenic site of the human active renin molecule. An aliquot of patient sample containing endogenous renin is rapidly thawed in a water bath and incubated in the coated well together with assay buffer. After incubation, unbound components are washed off. Finally, enzyme conjugate, a monoclonal anti-renin antibody conjugated with horseradish peroxidase, is added. After incubation, unbound enzyme conjugate is washed off. The amount of bound peroxidase is proportional to the concentration of renin in the sample. Having added the substrate solution, the intensity of color developed is proportional to the concentration of active renin in the patient sample. Personnel who conducted the assays were blinded to the study database and treatment allocation.

patients with severe AKI = assay: Renal recovery in patients with severe AKI by serum renin levels, ATHOS-3; conditions: first 7 days
Method: as §1, §2
as §3, with “For multivariate analyses, covariates that were utilized for study stratification (Model A), covariates that were different between groups defined by P<0.10 (Model B), and statistically significant covariates from Models A and B were included in a multivariate logistic regression (Model C). The dichotomized baseline covariates that were utilized for study stratification were MAP <65 mm Hg and APACHE II score >30.” left out

angiotensin I = assay: Serum angiotensin I level at baseline and hour 3, ATHOS-3 patients; conditions: hour 3; IQR 13.4%-65.1% reduction; placebo 8.1%
Method: as §1, §2, §4

[4] = test system: patients with catecholamine-resistant vasodilatory shock; assay: 28-day mortality / survival in ATHOS-3 by baseline serum renin; conditions: for Hazard Ratio (95% CI), mortality, treatment arm: patients with elevated baseline renin only; for unstratified hazard ratio, 28-day mortality, vs placebo: renin above study population median (high renin), N = 128, 95% CI 0.35-0.88
Method: as §1, §2, §3

[5] = test system: patients with catecholamine-resistant vasodilatory shock; assay: Change in CV and total SOFA score from baseline to hour 48, ATHOS-3
Method: as §1, §2, §3

[6] = renin above study population median, N = 55
[7] = renin above study population median, N = 55, listed as Angiotensin II
[8] = renin below study population median
[9] = renin below study population median, N = 64

Asp-Arg-Val-Tyr-Ile-His-Pro-Phe [angiotensin II]
adverse events or serious adverse events vs placebo [1]: no significant difference
MAP Response at Hour 3 ([2]; baseline renin <Pop Median, 57/73 patients): 57/73 (78.1%)
MAP Response at Hour 3 ([2]; baseline renin >=Pop Median, 39/64 patients): 39/64 (60.9%)
RRT Liberation by Day 7 (alive and RRT free) ([3]; renin above study population median): 43%
ICU Discharge by Day 28 [3, 6]: 44%
Ventilator Liberation by Day 7 (alive and vent free) [3, 6]: 28%
ICU Discharge by Day 28 [3, 7]: 44% (32%-58%)
Ventilator Liberation by Day 7 (alive and vent free) [3, 7]: 28% (18%-43%)
RRT Liberation by Day 7 (alive and RRT free) ([3]; renin above study population median, listed as Angiotensin II): 43% (25%-66%)
RRT Liberation by Day 7 (alive and RRT free) [3, 8]: 28% (13%-54%)
ventilator and RRT liberation, ICU discharge: difference between treatment groups [3, 8]: no differences
ICU Discharge by Day 28 [3, 9]: 39% (28%-52%)
Ventilator Liberation by Day 7 (alive and vent free) [3, 9]: 27% (18%-40%)
median reduction in renin concentration (serum renin; 3 hours after initiation of therapy, IQR 37.9%-66.5% reduction, placebo 14.1%): 54.3%
Renin % Change at Hour 3, Mean (SD) (serum renin; N 102): −45.5 (38.59) ^ %
Renin % Change at Hour 3, Median (range) (serum renin; N 102): −54.8 (−91.1-161.0) %
Renin Change at Hour 3, Mean (SD) (serum renin; N 102): −210.3 (307.43) ^
Renin Change at Hour 3, Median (range) (serum renin; N 102): −99.6 (−1574-496.2)
Hour 3 Renin, Mean (SD) (serum renin; N 103): 231.8 (416.91) ^
Hour 3 Renin, Median (range) (serum renin; N 103): 85.0 (4.0-2739.8)
RR (95% CI), likelihood of renal recovery vs placebo (patients with severe AKI; all patients with severe AKI, N = 105): 2.902 (1.293-6.515)
RR (95% CI), likelihood of renal recovery vs placebo (patients with severe AKI; severe AKI, renin above study median, N = 62): 4.112 (1.376-12.29), 0.0061
RR (95% CI), likelihood of renal recovery vs placebo (patients with severe AKI; severe AKI, renin below study median, N = 32): 2.215 (0.429-11.42), 0.3295
median reduction in angiotensin I levels (angiotensin I): 40.8%
HR (95% CI), treatment arm, multivariate ([4]; Table 4A whole cohort, full model): 0.77 (0.54-1.08)
HR (95% CI), treatment arm, multivariate ([4]; Table 4A whole cohort, step-wise model): 0.77 (0.54-1.08)
HR (95% CI), treatment arm, multivariate ([4]; Table 4B population below median renin, full model): 1.08 (0.64-1.82)
HR (95% CI), treatment arm, multivariate ([4]; Table 4B population below median renin, step-wise model): 1.11 (0.66-1.86)
HR (95% CI), treatment arm, multivariate ([4]; Table 4C population above median renin, full model): 0.62 (0.39-0.98)
HR (95% CI), treatment arm, multivariate ([4]; Table 4C population above median renin, step-wise model): 0.62 (0.39-0.98)
HR (95% CI), treatment arm, multivariate ([4]; Table 4D whole cohort with treatment-renin interaction, full model): 1.08 (0.64-1.81)
HR (95% CI), Treatment * Renin >= Population Median interaction ([4]; Table 4D whole cohort, full model): 0.54 (0.27-1.09)
HR (95% CI), treatment arm, multivariate ([4]; Table 4D whole cohort, step-wise model): 0.77 (0.54-1.08)
Day 28 mortality ([4]; baseline renin <Pop Median, N = 73): N = 73, 43.9%
Day 28 mortality ([4]; baseline renin >=Pop Median, N = 64): N = 64, 50.1%
HR, mortality sensitivity analysis ([4]; high renin cut-off 2x ULN): 0.69
HR, mortality sensitivity analysis ([4]; high renin cut-off 3x ULN): 0.57
HR, mortality sensitivity analysis ([4]; high renin cut-off 4x ULN): 0.63
HR, mortality sensitivity analysis ([4]; high renin cut-off ULN): 0.76
HR (95% CI), survival, vs placebo ([4]; high renin, AKI subset, N = 62): 0.51 (0.26-0.99), 0.0411
HR (95% CI), survival, vs placebo ([4]; high renin, ARDS subset, N = 41): 0.49 (0.21-1.16), 0.0964
HR (95% CI), survival, vs placebo ([4]; low renin, AKI subset, N = 32): 0.55 (0.19-1.58), 0.2574
HR (95% CI), survival, vs placebo ([4]; low renin, ARDS subset, N = 34): 1.38 (0.59-3.26), 0.4583
HR (95% CI), survival, vs placebo ([4]; low renin, all, N = 127): 1.11 (0.66-1.86), 0.7002
Hazard Ratio (95% CI), mortality, treatment arm ([4]; Model A): 0.58 (0.36-0.93)
Hazard Ratio (95% CI), mortality, treatment arm ([4]; Model B): 0.62 (0.38-0.99)
28-day mortality ([4]; patients with renin above the study population median, N = 55, table gives (95% CI)): 50.9%
28-day mortality ([4]; patients with renin above the study population median, N = 55, table gives (95% CI), listed as Angiotensin II): 51% (39%-65%)
28-day mortality ([4]; patients with renin below the study population median, N = 64): 45% (34%-58%)
unstratified hazard ratio, 28-day mortality, vs placebo ([4]; all): 0.56 and 0.556
unstratified hazard ratio, 28-day mortality, vs placebo ([4]; all, listed as LJPC 501): 0.56 (0.35-0.88), 0.0115
parameter estimate, treatment, Day 28 survival model ([4]; results available data): −0.298
difference in 28-day mortality vs placebo ([4]; serum renin below the study population median): no statistically significant difference
parameter estimate, treatment, Day 28 survival model ([4]; with multiple imputation of missing serum renin): −0.229
Hour 48 change from baseline in Total SOFA, Mean (SD) ([5]; elevated renin population, N = 54): 1.35±6.032
Hour 48 change from baseline in Total SOFA, Mean (SD) ([5]; elevated renin population, N = 54, listed as LJPC-501): N = 54, 1.35 (6.032)
Hour 48 change from baseline in CV SOFA, Mean (SD) ([5]; elevated renin population, N = 55): −1.56±1.793
Hour 48 change from baseline in CV SOFA, Mean (SD) ([5]; elevated renin population, N = 55, listed as LJPC-501): N = 55, −1.56 (1.793)
Hour 48 change from baseline in Total SOFA, Mean (SD) ([5]; low renin population, N = 62): N = 62, 0.85 (5.524)
Hour 48 change from baseline in CV SOFA, Mean (SD) ([5]; low renin population, N = 64): N = 64, −1.77 (1.716)
change in CV SOFA score compared to placebo ([5]; total ATHOS-3 population, baseline to hour 48): significantly greater
